Reference: patent publication US10221426B2, “Constitutively active PYR/PYL receptor proteins for improving plant stress tolerance” (The Regents of the University of California, priority 2009, dated 2019)

Target: T1, PYL4-HAB1 (Arabidopsis thaliana, UniProt O80920)
T1 construct: BD-PYR/PYL fusion proteins were constructed in the same manner as for BD-PYR1 above; expressed in transfected cells; host or cells: yeast (Y190, as for BD-PYR1)
T1 sequence (O80920 1-207): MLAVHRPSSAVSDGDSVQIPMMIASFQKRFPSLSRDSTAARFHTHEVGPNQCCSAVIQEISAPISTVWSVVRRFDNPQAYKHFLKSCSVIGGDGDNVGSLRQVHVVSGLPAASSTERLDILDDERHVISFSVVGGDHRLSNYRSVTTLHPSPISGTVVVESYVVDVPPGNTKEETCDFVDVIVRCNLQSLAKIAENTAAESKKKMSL
T1 sequence (Q9CAJ0 23-511 partner): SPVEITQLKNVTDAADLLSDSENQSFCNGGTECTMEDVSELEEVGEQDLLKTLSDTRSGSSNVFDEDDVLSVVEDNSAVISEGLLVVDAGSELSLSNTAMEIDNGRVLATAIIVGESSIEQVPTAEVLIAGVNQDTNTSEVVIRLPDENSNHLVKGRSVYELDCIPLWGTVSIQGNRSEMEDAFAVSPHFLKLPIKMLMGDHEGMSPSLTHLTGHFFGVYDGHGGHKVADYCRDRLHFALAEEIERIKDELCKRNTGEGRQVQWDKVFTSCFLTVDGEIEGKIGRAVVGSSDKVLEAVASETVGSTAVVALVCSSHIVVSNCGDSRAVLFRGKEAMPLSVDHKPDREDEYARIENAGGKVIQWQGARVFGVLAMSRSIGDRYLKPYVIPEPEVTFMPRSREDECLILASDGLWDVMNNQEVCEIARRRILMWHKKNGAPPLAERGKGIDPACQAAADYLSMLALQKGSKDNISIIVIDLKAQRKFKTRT
Experiment: Yeast two-hybrid BD-PYL4 / AD-HAB1 interaction
Type: cell-based
Conditions: 10 μM
Method: Given that PYR1 is necessary for pyrabactin action and is a predicted ligand-binding protein, we hypothesized that pyrabactin agonizes ABA signaling by inducing a protein-protein interaction between PYR1 and a downstream effector. To test this, ˜2 million prey cDNA clones were screened against a PYR1 Y2H bait construct on media containing 10 μM pyrabactin. To create the PYR1 Y2H bait construct, the Pyr1 open reading frame was PCR amplified from genomic DNA and cloned to pGem-T easy vector (Promega). After sequence confirmation, the Pyr1 ORF was then cloned in-frame between EcoRI and SalI sites of the pBD-GAL4 Cam vector (Stratagene) and transformed into yeast strain Y190. For the screen, an etiolated seedling cDNA library (J. Kim, K., Harter, A., Theologis, Proc Natl Acad Sci USA 94, 11786 (Oct. 28, 1997)) (ABRC stock CD4-22) was used. The cDNA library was first converted from phage to plasmid DNA, yielding 7.6×10^7 transformants. Plasmid DNA prepared from library was then used to transform Y190 as described in the GAL4 Two-Hybrid system manual (Stratagene). For each screen, 40 μg of prey plasmid was transformed into 1 ml of competent Y190 cell harboring bait construct and then grown on SD agar plates lacking His, Leu, and Trp, but containing 15 mM 3-AT and 10 μM pyrabactin. After 4 days incubation at 30° C., well-grown colonies were rescued and interactions validated using filter lift assay or chloroform-agarose overlay method and X-Gal staining. This identified two pyrabactin-dependent hits which sequencing determined encoded cDNAs for the PP2C HAB1, a close relative of the well-characterized ABA response factor ABI1 (A. Saez et al., The Plant Journal 37, 354 (2004); N. Leonhardt et al., THE PLANT CELL 16, 596 (2004)). Next, Y2H strains expressing an AD-HAB1 fusion protein and a BD-PYR1 fusion protein were grown on plates and tested for interactions in response to various compounds, all at 10 μM except for epi-brassinolide (50 nM) and dimethyl sulfoxide (DMSO) (carrier solvent, 1%). […] Thus, PYR1 interacts with HAB1 in a (+)-ABA dependent fashion.
To see if ABA and pyrabactin responsiveness is unique to PYR1, we tested 11 of the 13 PYL proteins as described above, using Y2H strains expressing an AD-HAB1 fusion protein and a BD-PYR/PYL fusion protein (listed at the left of FIG. 3A). BD-PYR/PYL fusion proteins were constructed in the same manner as for BD-PYR1 above. […] Of these, only Pyr1 is highly transcribed in seeds, which likely explains why mutations in Pyr1 cause the seeds to be insensitive to pyrabactin. […] However the interactions of PYLs 5-12 with the PP2Cs are indicative that the entire protein family is likely to share a similar mechanism of action involving PP2C modulation, as we describe below. […]

SMILES: CC1=CC(=O)CC(C)(C)C1(O)/C=C/C(C)=C\C(=O)O (single isomer, unassigned; (+)) [(+)-ABA]
- PYL4-HAB1 interaction by X-gal stain: respond

SMILES: CC1=CC(=O)CC(C)(C)[C@@]1(O)/C=C/C(C)=C\C(=O)O [ABA, Abscisic acid]
- PYL4-HAB1 interaction by X-gal stain: interact with HAB1 in an ABA-stimulated manner
